Laboratory results: paper PMC10005301, “Prediction of the n-Octanol/Water Partition Coefficients of Basic Compounds Using Multi-Parameter QSRR Models Based on IS-RPLC Retention Behavior in a Wide pH Range” (Molecules, 2023)
Where two headings read alike, the source gives them in different places.

Assays:
[1] = logD determined by multi-parameter QSRR models from IS-RPLC logkw
Description: Multi-parameter QSRR models including logD, logkw, ne, A, and B were established using the multiple linear regression (MLR) method. In the process of linear fitting, ne, A, B, and their different combinations were introduced to optimize the models.
The logD values reported in the literature for these four compounds were calculated using Equation (S3) with corresponding pKa, logP, and pH values.
(§1) At each pH, the retention time (tR) of every analyte was determined for at least four different volume fractions (φ) of methanol. All the tR values of the solutes were obtained by averaging the results of at least three independent injections. The tR value was corrected using dual-point retention time correction (DP-RTC). For a detailed description of the process, refer to our previous work. For the different hydrophobicities of the studied compounds, benzene, toluene, and benzyl alcohol were used as anchor compounds in the DP-RTC method. The dead time t0 was determined using uracil. For each solute, the logarithm of k was plotted against φ, and logkw was obtained using the Equation (S1). The logD values of the model compounds were calculated using Equation (S3), and the logD–logkw models were established with Equation (S4). The statistical analysis for the regression model was accomplished using Origin 9.4.

[2] = IS-RPLC retention on silica-based C18 column, logkw by linear solvent strength model; assay type: physicochemical
Description: (§2) The retention behavior of the 42 basic compounds (Table 1) were investigated at different ratios of methanol (φ = 0.7–0.1, the interval was 0.1 or 0.05 based on the retention of the investigated solutes). The logk values were plotted versus φ for each solute at pH 7.0, pH 8.0, pH 9.0, and pH 10.0. […] The logD values of the model compounds and verification compounds calculated using Equation (S3) based on the logP and pH values are also listed in Table 1.
The column temperature was set at 30 °C. Methanol and 20 mmol/L ammonium phosphate buffer (pH = 7.0, 8.0, 9.0, 10.0) was used as the mobile phase to perform isocratic elution. The injection volume was 10 µL and the detection wavelength for each eluted compound was set at its optimum absorption wavelength.
as §1, with “9.4. […]” for “9.4.”
(§3) Where, k is the capacity factor, φ is the volume fraction of organic modifier in the mobile phase, and S is the constant obtained by linear regression in the equations. […]
The Eqs. (S1) and (S2) are the basis for the determination of logP by revered- phase liquid chromatography (RPLC) method. For dissociative solutes, it has been confirmed by many studies that the logD calibrated from logP has a better linear correlation with logkw than logP. […]

[3] = parameters: method as in UFZ-LSER database; details: hydrogen bonding parameter B; ref UFZ-LSER database; cited from earlier work
[4] = Excerpt: as §2
as §1, with “9.4. […]” for “9.4.”
as §3
and logkw, which is usually called Collander equation [25 ]. lo g lo g wPm k n= + (S2)
Where, m and n are constants obtained by linear regression.
The Eqs. (S1) and (S2) are the basis for the determination of logP by revered- phase liquid chromatography (RPLC) method. For dissociative solutes, it has been confirmed by many studies that the logD calibrated from logP has a better linear correlation with logkw than logP.
For basic compounds, the logD value can be calibrated from Eq. (S3), and the Collander equation can be rewritten into Eq. (S4). log log( )D − −+ −+= + ++P […]
lo g ' lo g 'Dm k n= +w (S4)
Where, pKa1, pKa2 , … p Kan are the dissociation constants of basic compounds of corresponding acids in the mobile phase, pH is the pH value of mobile phase, m′ and n′ are fitting parameters. Han et al. pointed out that although mobile phase pH and pKa of solutes will change along with the varied organic modifier fraction, the difference between a couple of relevant pH and pKa is a constant. Therefore, the used pH and pKa in this paper were both the values obtained at 100% aqueous phase. […]

[5] = IS-RPLC retention (logkw), pH 7
[6] = IS-RPLC retention (logkw), pH 8
[7] = IS-RPLC retention (logkw), pH 9
[8] = IS-RPLC retention (logkw), pH 10
[9] = pH 7.0, methanol/20 mmol/L ammonium phosphate buffer, Welch Xtimate C18, 30 °C, 100% aqueous extrapolation
[10] = pH 8.0, methanol/20 mmol/L ammonium phosphate buffer, Welch Xtimate C18, 30 °C, 100% aqueous extrapolation
[11] = pH 9.0, methanol/20 mmol/L ammonium phosphate buffer, Welch Xtimate C18, 30 °C, 100% aqueous extrapolation
[12] = pH 10.0, methanol/20 mmol/L ammonium phosphate buffer, Welch Xtimate C18, 30 °C, 100% aqueous extrapolation
[13] = pH 7.0, calculated with literature logP, pKa and pH, Equation (S3)
[14] = pH 8.0, calculated with literature logP, pKa and pH, Equation (S3)
[15] = pH 9.0, calculated with literature logP, pKa and pH, Equation (S3)
[16] = pH 10.0, calculated with literature logP, pKa and pH, Equation (S3)

SMILES | logkw-pH 7.0 [2, 9] | logkw-pH 8.0 [2, 10] | logkw-pH 9.0 [2, 11] | logkw-pH 10.0 [2, 12] | B [3] | chromatographic logD ([1]; pH 7) | chromatographic logD ([1]; pH 8) | chromatographic logD ([1]; pH 9) | chromatographic logD ([1]; pH 10) | also measured
O=C(n1ccnc1)n1ccnc1 [1,1’-Carbonyldiimidazole] | −0.39 | −0.38 | −0.27 | −0.15 | 1.47 | – | – | – | – | chromatographic logD [1, 5]: -0.52; chromatographic logD [1, 6]: -0.46; chromatographic logD [1, 7]: -0.84; chromatographic logD [1, 8]: -0.89
Nc1ccccc1N [1,2-diaminobenzene] | – | – | – | – | 1.26 | 0.38 | 0.38 | 0.07 | 0.28 | logkw-pH 7.0 ([2]; pH 7): 0.50; logkw-pH 8.0 ([2]; pH 8): 0.49; logkw-pH 9.0 ([2]; pH 9): 0.29; logkw-pH 10.0 ([2]; pH 10): 0.60
Nc1cccc(N)c1 [1,3-diaminobenzene] | 0.17 | 0.07 | −0.16 | 0.21 | 1.28 | 0.03 | -0.02 | -0.41 | -0.15 | –
Nc1ccc([N+](=O)[O-])cc1[N+](=O)[O-] [2,4-Dinitroaniline] | 1.80 | 1.86 | 1.78 | 1.92 | 1.44 | 1.71 | 1.69 | 1.58 | 1.64 | –
Nc1ncncn1 [2-Amino-1,3,5-triazine] | 1.36 | 1.36 | 1.38 | 1.43 | 1.00 | – | – | – | – | chromatographic logD [1, 5]: 1.27; chromatographic logD [1, 6]: 1.22; chromatographic logD [1, 7]: 0.95; chromatographic logD [1, 8]: 0.88
COc1nc(C)nc(N)n1 [2-Amino-4-methyl-6-methoxy-s-triazine] | 1.36 | 1.36 | 1.38 | 1.43 | 1.07 | – | – | – | – | chromatographic logD [1, 5]: 1.28; chromatographic logD [1, 6]: 1.22; chromatographic logD [1, 7]: 0.94; chromatographic logD [1, 8]: 0.86
Nc1c(Cl)cc([N+](=O)[O-])cc1[N+](=O)[O-] [2-Chloro-4,6-dinitroaniline] | 2.19 | 2.25 | 2.26 | 2.30 | 1.56 | 2.11 | 2.07 | 1.99 | 1.97 | –
Nc1ccc([N+](=O)[O-])cc1Cl [2-Chloro-4-nitroaniline] | – | – | – | – | 1.41 | 1.99 | 1.96 | 1.93 | 1.92 | logkw-pH 7.0 ([2]; pH 7): 2.07; logkw-pH 8.0 ([2]; pH 8): 2.13; logkw-pH 9.0 ([2]; pH 9): 2.14; logkw-pH 10.0 ([2]; pH 10): 2.18
Cc1cc([N+](=O)[O-])ccc1N [2-Methyl-4-nitroaniline] | 1.76 | 1.79 | 1.46 | 1.84 | 1.22 | 1.67 | 1.63 | 1.31 | 1.6 | –
Cc1ccccn1 [2-Picoline] | 1.31 | 1.32 | 1.34 | 1.36 | 0.60 | – | – | – | – | logDpH 7.0 ([4]; pH 7): 1.05; logDpH 8.0 ([4]; pH 8): 1.09; logDpH 9.0 ([4]; pH 9): 1.09; logDpH 10.0 ([4]; pH 10): 1.09
Nc1ccc(F)cc1 [4-Fluoroaniline] | 1.13 | 1.12 | 1.14 | 1.18 | 1.76 | – | – | – | – | logDpH 7.0 [4, 13]: 1.15; logDpH 8.0 [4, 14]: 1.15; logDpH 9.0 [4, 15]: 1.15; logDpH 10.0 [4, 16]: 1.15
Nc1ccccc1 [Aniline] | 0.96 | 0.95 | 0.97 | 1.02 | 1.86 | – | – | – | – | logDpH 7.0 ([4]; pH 7): 0.90; logDpH 8.0 ([4]; pH 8): 0.90; logDpH 9.0 [4, 15]: 0.90; logDpH 10.0 ([4]; pH 10): 0.90
c1c[nH]cn1 [Imidazole] | −0.53 | −0.39 | −0.34 | −0.16 | 0.71 | – | – | – | – | –
CN(C)Cc1ccccc1 [N, N-Dimethylbenzylamine] | 0.97 | 1.61 | 2.13 | 2.44 | 0.67 | – | – | – | – | logDpH 7.0 [4, 13]: 0.17; logDpH 8.0 [4, 14]: 1.12; logDpH 9.0 [4, 15]: 1.77; logDpH 10.0 [4, 16]: 1.95
c1ccncc1 [Pyridine] | – | – | – | – | – | – | – | – | – | logkw-pH 7.0 ([2]; pH 7): 0.70; logkw-pH 8.0 ([2]; pH 8): 0.92; logkw-pH 9.0 ([2]; pH 9): 1.01; logkw-pH 10.0 ([2]; pH 10): 1.05
